According to US20100081622A1, “Reduction of parathyroid hormone levels” (Sanos Bioscience A/S, priority 2008, published 2010):

What was measured:
[1] = rats; cited from earlier work
[2] = test system: serum PTH; conditions: tHPT patients, after 10 weeks of treatment; cited from earlier work
[3] = test system: plasma PTH; assay: Plasma PTH after bedtime administration of GLP-2 in non-fasting subjects (Example 2); type: in vivo, human; conditions: postmenopausal women, 2x800 μg 3 hrs apart versus 1600 μg once, at bedtime, FIG. 2
Protocol: The study was a randomized, block-stratified, placebo-controlled, parallel study. A total of 44 postmenopausal women were included and randomly assigned to treatment with either 1600 μg GLP-2 (n=14), 800 μg GLP-2 twice (administered 3 hrs apart) (n=15), or placebo, i.e. saline (n=15). All subjects received 2 injections one at 10 pm […] and one 3 hrs later at 1 am […]. Thus, the placebo group was given two injections of saline and the 2×800 μg group two injections of 800 μg GLP-2, while the 1600 μg group received one injection of 1600 μg GLP-2 and one injection of saline.
On the day of treatment with the study medication, blood samples for efficacy measurement was taken from 10 pm every hour until 8 am.

[4] = test system: plasma PTH; assay: Plasma PTH at Day 1 and Day 120 after daily bedtime administration for 120 days (Example 3); type: in vivo, human; conditions: postmenopausal women with osteopenia; daily 0.4, 1.6 or 3.2 mg subcutaneous at bedtime for 120 days plus calcium and vitamin D
Protocol: The study was a randomised, double-blinded, placebo-controlled, parallel group and dose-ranging study in 160 postmenopausal women with osteopenia (BMD T-score, −2.5≦T≦−1.0) at one or more of the regions: the lumbar spine, femoral neck or total hip. Forty (40) subjects were randomised to each treatment group to receive treatment with daily doses of 0.4 mg, 1.6 mg or 3.2 mg of GLP-2 plus calcium (800-1000 mg/day) and vitamin D (400-800 IU/day), or placebo plus calcium (800-1000 mg/day) and vitamin D (400-800 IU/day) for 120 days.
The treatment involved a daily injection of the study medication at bedtime (10:00 pm±1 hour) for 120 consecutive days.
Pharmacokinetic/dynamic sampling during treatment Day 1 and 120 included blood and urine samples collected at the time points: −1 hour, 0 min, 1 hour, 2 hours, 3 hours, 6 hours and 10 hours in connection with the injection of the study medication for the assessment of efficacy parameters and pharmacokinetic/dynamic parameters of subcutaneous injections of GLP-2.

[5] = test system: plasma PTH; assay: Plasma PTH after morning administration of GLP-2 in fasting subjects (Example 1); type: in vivo, human; conditions: postmenopausal women, one dose of 100, 200, 400 or 800 μg at 9 am, followed 8 hrs, FIG. 1
Protocol: The study was a randomized, block-stratified, placebo-controlled, parallel study. A total of 60 subjects of postmenopausal women were included and allocated to one of five groups each including 12 subjects receiving one dose of 100 μg, 200 μg, 400 μg, 800 μg GLP-2, or placebo.
On the day of treatment with the study medication, the subjects met at the study site after an overnight fast. The study medication was administered at 9 am (0 hrs) and the subjects remained fasting for another 8 hrs, thus at 5 pm the fasting period ended.

For `C=C1/C(=C\C=C2/CCC[C@]3(C)[C@@H]([C@H](C)CCCC(C)(C)O)CC[C@@H]23)C[C@@H](O)C[C@@H]1O` [calcitriol], the aortic calcification [1] is given as “moderate to marked aortic calcification”.
In the case of `C[C@@H](NCCCc1cccc(C(F)(F)F)c1)c1cccc2ccccc12` [Cinacalcet], the “reduction in serum PTH” value [2] is given as 21.8%.
In the case of “His-Ala-Asp-Gly-Ser-Phe-Ser-Asp-Glu-Met-Asn-Thr-Ile-Leu-Asp-Asn-Leu-Ala-Ala-Arg-Asp-Phe-Ile-Asn-Trp-Leu-Ile-Gln-Thr-Lys-Ile-Thr-Asp-Arg (HADGSFSDEMNTILDNLAARDFINWLIQTKITDR; printed: His-Ala-Asp-Gly-Ser-Phe-Ser-Asp-Glu-Met-Asn-Thr-Ile-Leu-Asp-Asn-Leu-Ala-Ala-Arg-Asp-Phe-Ile-Asn-Trp-Leu-Ile-Gln-Thr-Lys-Ile-Thr-Asp-Arg) [GLP-2]”, the “plasma PTH, area difference between treatment and placebo curves” value [3] is reported as “two injections of 800 μg produced a greater area difference between the treatment and placebo curves”, the “effect on plasma PTH over the treatment period, Day 1 versus Day 120” value [4] is reported as “remains consistent” and the “plasma PTH level after GLP-2” value [5] is reported as “dose dependent rapid decrease in PTH which gradually abates over an 8 hour period”.
